How the values were obtained:
PDHK2 = PDHK2 (Homo sapiens (Human), UniProt Q15119); test: Biochemical activity testing of PDHK2: PDC inactivation assay; settings: human rec PDHK2, 5 μM ATP, read-out: IC50 PDHK2 (enzyme assay)
Source text: Biochemical Activity Testing of PDHK2: PDC Inactivation Assay
The biochemical activity assay for PDHK2 is based on the inactivation of PDC through phosphorylation by PDHK2. The assay is run in two steps: the enzymatic PDHK2 reaction in which isolated PDC is phosphorylated by PDHK2 with ATP as co-substrate and the PDC activity assay in which pyruvate and NAD are converted to acetyl-CoA and NADH. The PDC activity correlates to the increase in NADH and thereby is detectable directly via the increasing fluorescence signal (Exc 340 nm, Em 450 nm). Inhibition of PDHK2 results in a lower phosphorylation status and thereby a less decrease in activity of PDC and a stronger increase in NADH fluorescence signal.
The PDC inactivation assay is performed in Greiner 384-well microtiter plates and is used for high throughput screen. 4 μl of PDHK2 (human, rec, Carna Bioscience, 10 ng/μl-137 nM final concentration) and PDC (isolated from porcine heart, Sigma-Aldrich, 20 mU/ml final concentration) are incubated in the absence or presence of the test compound (10 dilution concentrations) for 30 min at room temperature in kinase buffer (15 mM potassium phosphate buffer, pH 7.0, 60 mM KCl, 1.5 mM DTT, 2.5 mM MgCl2, 0.0125% (w/v) BSA, 0.125% Pluronic F-68). The kinase reaction is started by the addition of 4 μl ATP substrate solution (fc 5 μM in kinase buffer). After 30 min incubation at 37° C. 40 μl of PDC reaction solution (100 mM Tris/HCl, pH 7.8, 0.5 mM EDTA, 1 mM MgCl2, 50 mM NaF, 0.25 mM Coenzyme A, 5 mM pyruvate, 1 mM NAD, 5 mM DTT, 1 mM thiamine pyrophosphate) is added. The first fluorescence measurement is performed on a Perkin Elmer Envision (Exc 340 nm, Em 450 nm). The reaction is incubated for 45 min at room temperature. Afterwards a second fluorescence measurement is performed and the PDC activity is calculated by the difference between both measurements. As full value for the PDHK2 assay the inhibitor-free PDHK2 reaction is used. The pharmacological zero value used is DCA (Sigma-Aldrich) in a final concentration of 3 mM. The inhibitory values (IC50) were determined using either the program Symyx Assay Explorer® or Condosseo® from GeneData.

human PDHK2 (12-407) = human PDHK2 (12-407) (Homo sapiens (Human), UniProt Q15119); test: Isothermal titration calorimetry (ITC); settings: 30° C., pH 7.5; read-out: Binding (ITC) KD
Experimental: Isothermal Titration Calorimetry
ITC measurements were performed with a VP-ITC micro calorimeter (Microcal, LLC/GE Healthcare Bio-Sciences AB, Uppsala, Sweden). In general titrations were performed by titrating the protein (50 μM) to the test compound (5 μM) in 12 μl injections. All binding experiments were carried out at 30° C. In general the test compounds were diluted form DMSO stock solutions into the measurement buffer with a maximum final concentration of 1% DMSO. The measurement buffer was 20 mM HEPES, 135 mM KCl, 1 mM TCEP, 2 mM MgCl2, 15 mM NaH2PO4, pH 7.5. The human PDHK2 (12-407) was produced in E. coli as his-tagged protein and purified by affinity chromatography. The tag was removed by side specific proteolysis. Before titration the protein buffer was changed to the measurement buffer containing the same DMSO concentration as the test compound dilution. ITC data analysis was performed using Origin 7 calorimetry software from the same supplier. For most measurements a binding model of one binding site was assumed. According to the applied mathematical model it is possible to calculate the binding constant (KA), the observed binding enthalpy (ΔH^obs) as well as the stoichiometry (N) of the formed complex. Preceding analysis the raw data was corrected for the heats of dilution by extrapolating from the saturation value from the end of titration. In order to allow for direct comparison between the respective experimental series and protein preparations the protein concentration was corrected by referencing titrations to a well behaved standard inhibitor. The apparent stoichiometry values defined the fraction of binding competent protein and compensated for relative errors in protein concentration measurements. This corrected protein concentration was used to set up ITC experiment series with test compounds. Any deviations from ideal 1:1 stoichiometry observed here were attributed to errors in compound concentration. This nominal compound concentration was corrected as well to achieve 1:1 stoichiometry in the fit.

[1] = system: PDH-E1alpha (pSer300) in HEK293T cells; test: Cellular immunofluorescence assay (Anti-PDH-E1alpha (pSer300)) in HEK293T cells; format: cell-based; settings: Homo sapiens, HEK-293T, 5 hours incubation, read-out: IC50 (cell data)
Experimental: Cellular Assay for Determination of Compound Activities
Compound activities were determined in a cellular immunofluorescence assay.
Human HEK293T cells were seeded into black 384-well plates with clear bottom and grown overnight.
Next day, test compounds were added to the wells and the plates incubated for 5 hours. Following this, cells were fixed with formaldehyde, permeabilised and blocked. The primary antibody, Anti-PDH-E1alpha (pSer300), AP1064 (Merck Millipore) was added and incubated overnight in the plate wells. Next, cells were washed and the secondary antibody, Alexa Fluor 488, goat anti-rabbit ab (A-11008, Invitrogen) was added together with Hoechst 33258 (H3569, Invitrogen) and incubated for 1 hour in the plate wells. Finally, cells were washed and the plates were measured on the laser scanning cytometer acumen hci (TTpLabtech).
The raw data were normalized against a pharmacological inhibitor control and dose response curves were generated by plotting the percent effect values using the software package Genedata screener (Genedata).

Cc1ccc(N(C)C(=O)C2CCN(C(=O)[C@@](C)(O)C(F)(F)F)CC2)cc1 [Compound A1, 1-((R)-3,3,3-Trifluoro-2-hydroxy-2-methyl-propionyl)-piperidine-4-carboxylic Acid Methyl-p-Tolyl-Amide]
IC50 (PDHK2): 1100 nM | Kd (human PDHK2 (12-407)): 130 nM | IC50 [1]: 5300 nM

Cc1ccc(N(C)C(=O)C2CCN(C(=O)[C@@](C)(O)C(F)(F)F)CC2)c(F)c1 [Compound A2, 1-((R)-3,3,3-Trifluoro-2-hydroxy-2-methyl-propionyl)-piperidine-4-carboxylic acid (2-fluoro-4-methyl-phenyl)-methyl-amide]
IC50 (PDHK2): 200 nM | Kd (human PDHK2 (12-407)): 90 nM | IC50 [1]: 2600 nM

CN(C(=O)C1CCN(C(=O)[C@@](C)(O)C(F)(F)F)CC1)c1ccc(C(F)(F)F)cc1Cl [Compound A3, 1-((R)-3,3,3-Trifluoro-2-hydroxy-2-methyl-propionyl)-piperidine-4-carboxylic acid (2-chloro-4-trifluoromethyl-phenyl)-methyl-amide]
IC50 (PDHK2): 410 nM | Kd (human PDHK2 (12-407)): 38 nM | IC50 [1]: 2100 nM

CN(C(=O)C1CCN(C(=O)[C@@](C)(O)C(F)(F)F)CC1)c1ccc(Cl)cc1 [Compound A5, 1-((R)-3,3,3-Trifluoro-2-hydroxy-2-methyl-propionyl)-piperidine-4-carboxylic acid (4-chloro-phenyl)-methyl-amide]
IC50 (PDHK2): 590 nM | Kd (human PDHK2 (12-407)): 190 nM | IC50 [1]: 2800 nM

Cc1ccc(N(C)C(=O)[C@H]2CCN(C(=O)[C@@](C)(O)C(F)(F)F)C[C@H]2C)cc1 [Compound A7, (3S,4S)—N,3-Dimethyl-N-(4-methylphenyl)-1-[(2R)-3,3,3-trifluoro-2-hydroxy-2-methylpropanoyl]piperidine-4-carboxamide]
IC50 (PDHK2): 160 nM | Kd (human PDHK2 (12-407)): 31 nM | IC50 [1]: 19 nM

CC1CN(C(=O)[C@@](C)(O)C(F)(F)F)CCC1C(=O)N(C)c1ccc(Cl)cc1 (stereo partly drawn) [Compound A9, N-(4-chlorophenyl)-N,3-dimethyl-1-[(2R)-3,3,3-trifluoro-2-hydroxy-2-methylpropanoyl]piperidine-4-carboxamide]
IC50 (PDHK2): 270 nM | Kd (human PDHK2 (12-407)): 100 nM | IC50 [1]: 230 nM

C[C@@H]1CN(C(=O)[C@@](C)(O)C(F)(F)F)CC[C@@H]1C(=O)N(C)c1ccc(Cl)cc1 [Compound A10, (3S,4S)—N-(4-chlorophenyl)-N,3-dimethyl-1-[(2R)-3,3,3-trifluoro-2-hydroxy-2-methylpropanoyl]piperidine-4-carboxamide]
IC50 (PDHK2): 110 nM | Kd (human PDHK2 (12-407)): 26 nM | IC50 [1]: 170 nM

Cc1ccc(N(C)C(=O)C2CCN(C(=O)[C@@](C)(O)C(F)(F)F)CC2C)c(F)c1 (stereo partly drawn) [Compound A12, N-(2-fluoro-4-methylphenyl)-N,3-dimethyl-1-[(2R)-3,3,3-trifluoro-2-hydroxy-2-methylpropanoyl]piperidine-4-carboxamide]
IC50 (PDHK2): 200 nM | IC50 [1]: 190 nM

Cc1ccc(N(C)C(=O)[C@H]2CCN(C(=O)[C@@](C)(O)C(F)(F)F)C[C@H]2C)c(F)c1 [Compound A13, (3S,4S)—N-(2-fluoro-4-methylphenyl)-N,3-dimethyl-1-[(2R)-3,3,3-trifluoro-2-hydroxy-2-methylpropanoyl]piperidine-4-carboxamide]
IC50 (PDHK2): 120 nM | Kd (human PDHK2 (12-407)): 14 nM | IC50 [1]: 70 nM

CN(C(=O)c1ccc(Cl)cc1)C1CCN(C(=O)[C@@](C)(O)C(F)(F)F)CC1 [Compound A16, 4-Chloro-N-methyl-N-{1-[(2R)-3,3,3-trifluoro-2-hydroxy-2-methylpropanoyl]piperidin-4-yl}benzamide]
IC50 (PDHK2): 390 nM | Kd (human PDHK2 (12-407)): 154 nM | IC50 [1]: 1500 nM

Cc1ccc(C(=O)N(C)C2CCN(C(=O)[C@@](C)(O)C(F)(F)F)CC2)cc1 [Compound A17, N,4-Dimethyl-N-{1-[(2R)-3,3,3-trifluoro-2-hydroxy-2-methylpropanoyl]piperidin-4-yl}benzamide]
IC50 (PDHK2): 250 nM | Kd (human PDHK2 (12-407)): 110 nM | IC50 [1]: 1000 nM

Cc1ccc(C(=O)N(C)C2CCN(C(=O)[C@@](C)(O)C(F)(F)F)CC2)c(F)c1 [Compound A18, 2-Fluoro-4,N-dimethyl-N-{1-[(R)-3,3,3-trifluoro-2-hydroxy-2-methyl-propionyl]-piperidin-4-yl}-benzamide]
IC50 (PDHK2): 260 nM | Kd (human PDHK2 (12-407)): 69 nM | IC50 [1]: 700 nM

CN(C(=O)c1ccc(C(F)(F)F)cc1Cl)C1CCN(C(=O)[C@@](C)(O)C(F)(F)F)CC1 [Compound A19, 2-Chloro-N-methyl-N-{1-[(2R)-3,3,3-trifluoro-2-hydroxy-2-methylpropanoyl]piperidin-4-yl}-4-(trifluoromethyl)benzamide]
IC50 (PDHK2): 550 nM | Kd (human PDHK2 (12-407)): 53 nM | IC50 [1]: 520 nM

C[C@@H]1CN(C(=O)[C@@](C)(O)C(F)(F)F)CC[C@@H]1N(C)C(=O)c1ccc(Cl)cc1 [Compound A21, 4-Chloro-N-methyl-N-[(3R,4S)-3-methyl-1-[(2R)-3,3,3-trifluoro-2-hydroxy-2-methylpropanoyl]piperidin-4-yl]benzamide]
IC50 (PDHK2): 260 nM | Kd (human PDHK2 (12-407)): 57 nM | IC50 [1]: 160 nM

Cc1ccc(C(=O)N(C)[C@H]2CCN(C(=O)[C@@](C)(O)C(F)(F)F)C[C@H]2C)cc1 [Compound A24, N,4-Dimethyl-N-[(3R,4S)-3-methyl-1-[(2R)-3,3,3-trifluoro-2-hydroxy-2-methylpropanoyl]piperidin-4-yl]benzamide]
IC50 (PDHK2): 130 nM | Kd (human PDHK2 (12-407)): 16 nM | IC50 [1]: 290 nM

Cc1ccc(C(=O)N(C)[C@H]2CCN(C(=O)[C@@](C)(O)C(F)(F)F)C[C@H]2C)c(F)c1 [Compound A27, 2-Fluoro-N,4-dimethyl-N-[(3R,4S)-3-methyl-1-[(2R)-3,3,3-trifluoro-2-hydroxy-2-methylpropanoyl]piperidin-4-yl]benzamide]
IC50 (PDHK2): 300 nM | Kd (human PDHK2 (12-407)): 13 nM | IC50 [1]: 9.3 nM

C[C@@H]1CN(C(=O)[C@@](C)(O)C(F)(F)F)CC[C@@H]1N(C)C(=O)c1ccc(F)cc1 [Compound A29, 4-Fluoro-N-methyl-N-[(3R,4S)-3-methyl-1-[(2R)-3,3,3-trifluoro-2-hydroxy-2-methylpropanoyl]piperidin-4-yl]benzamide]
IC50 (PDHK2): 250 nM | Kd (human PDHK2 (12-407)): 38 nM | IC50 [1]: 290 nM

C[C@@H]1CN(C(=O)[C@@](C)(O)C(F)(F)F)CC[C@@H]1N(C)C(=O)c1ccccc1 [Compound A32, N-Methyl-N-[(3R,4S)-3-methyl-1-[(2R)-3,3,3-trifluoro-2-hydroxy-2-methylpropanoyl]piperidin-4-yl]benzamide]
IC50 (PDHK2): 710 nM | Kd (human PDHK2 (12-407)): 46 nM | IC50 [1]: 140 nM

Reference: US10428024B2, “Piperidinyl derivatives” (MERCK PATENT GMBH, priority 2016, dated 2019)
